This note sets out measurements from patent US9120804B2, “8-substituted 2-amino-[1,2,4] triazolo [1, 5-A] pyrazines as Syk tryrosine kinase inhibitors and GCN2 serin kinase inhibitors” (Merck Patent GmbH, priority 2012, dated 2015).

The target of one assay is T1, SYK (Homo sapiens, UniProt P43405).
T1 construct: 2.5 nM SYK, 400 nM Biotin-Aha-Aha-KEDPDYEWPSAKK
Nature of the assay: SYK flash plate assay (enzyme assay). It is filed as biochemical. In short, it runs like this: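 Radiometric Flashplate format: biotinylated peptide substrate (400 nM) and 33P-labelled ATP (10 μM) react with 2.5 nM enzyme for 1 hour at 30 °C in Hepes buffer, pH 7.5. After EDTA quench and washing, counts are taken; staurosporine defines non-specific signal, and IC50 values are derived.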

The next assay concerns the target GCN2 (Homo sapiens, UniProt Q9P2K8). Nature of the assay: GCN2 enzyme assay. Type of assay: biochemical.

Each structure is given as a SMILES string.

GCN2, sequence (Q9P2K8 whole entry): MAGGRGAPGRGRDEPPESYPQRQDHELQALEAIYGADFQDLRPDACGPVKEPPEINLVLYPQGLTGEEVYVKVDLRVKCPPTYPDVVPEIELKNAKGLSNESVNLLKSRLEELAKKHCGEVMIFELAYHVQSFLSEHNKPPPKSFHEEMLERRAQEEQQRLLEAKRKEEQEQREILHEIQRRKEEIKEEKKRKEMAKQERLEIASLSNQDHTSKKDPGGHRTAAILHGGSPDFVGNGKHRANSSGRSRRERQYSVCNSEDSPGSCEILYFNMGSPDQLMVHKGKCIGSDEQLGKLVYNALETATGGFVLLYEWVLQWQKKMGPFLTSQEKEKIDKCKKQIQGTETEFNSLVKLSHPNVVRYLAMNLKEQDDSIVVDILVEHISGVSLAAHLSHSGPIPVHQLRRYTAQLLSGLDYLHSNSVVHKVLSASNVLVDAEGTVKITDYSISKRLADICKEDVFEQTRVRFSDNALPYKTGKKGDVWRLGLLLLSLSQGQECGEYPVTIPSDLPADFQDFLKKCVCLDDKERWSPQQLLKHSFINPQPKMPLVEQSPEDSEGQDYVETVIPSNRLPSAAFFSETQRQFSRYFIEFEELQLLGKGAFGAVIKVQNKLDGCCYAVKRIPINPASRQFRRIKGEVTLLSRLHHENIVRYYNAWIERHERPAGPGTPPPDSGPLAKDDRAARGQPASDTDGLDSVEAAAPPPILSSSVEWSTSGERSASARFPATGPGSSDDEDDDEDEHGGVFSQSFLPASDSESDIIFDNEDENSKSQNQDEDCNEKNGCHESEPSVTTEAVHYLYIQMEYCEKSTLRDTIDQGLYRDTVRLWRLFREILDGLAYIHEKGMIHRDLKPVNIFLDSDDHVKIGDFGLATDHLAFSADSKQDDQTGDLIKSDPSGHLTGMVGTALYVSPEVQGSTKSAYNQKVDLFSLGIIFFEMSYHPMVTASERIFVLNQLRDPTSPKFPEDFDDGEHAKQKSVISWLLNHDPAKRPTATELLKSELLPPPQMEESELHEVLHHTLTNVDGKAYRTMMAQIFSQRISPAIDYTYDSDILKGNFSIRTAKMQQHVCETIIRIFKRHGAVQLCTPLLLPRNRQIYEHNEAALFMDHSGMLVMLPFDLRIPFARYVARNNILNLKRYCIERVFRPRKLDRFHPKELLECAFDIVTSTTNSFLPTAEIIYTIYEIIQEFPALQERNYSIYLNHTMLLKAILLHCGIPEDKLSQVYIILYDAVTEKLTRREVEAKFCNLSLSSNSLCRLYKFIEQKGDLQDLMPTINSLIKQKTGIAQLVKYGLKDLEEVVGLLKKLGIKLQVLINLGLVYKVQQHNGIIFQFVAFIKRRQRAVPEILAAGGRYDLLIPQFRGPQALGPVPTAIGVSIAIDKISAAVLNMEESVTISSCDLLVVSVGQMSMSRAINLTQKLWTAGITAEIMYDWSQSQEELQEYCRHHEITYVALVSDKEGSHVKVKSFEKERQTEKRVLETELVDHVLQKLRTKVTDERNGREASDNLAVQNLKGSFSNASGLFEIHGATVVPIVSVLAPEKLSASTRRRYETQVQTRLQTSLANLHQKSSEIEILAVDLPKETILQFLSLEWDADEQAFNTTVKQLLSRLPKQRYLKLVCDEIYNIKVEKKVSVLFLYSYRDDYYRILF

What is called IC50 is the concentration at which inhibition is half-maximal. Turning to `COc1cc(Nc2nc3c(N4CCN(C(=O)CO)CC4)nccn3n2)cc(OC)c1` [C56, 1-{4-[2-(3,5-dimethoxy-phenylamino)-[1,2,4]triazolo[1,5-a]pyrazin-8-yl]-piperazin-1-yl}-2-hydroxy-ethanone], the 50% inhibitory concentration (IC50) on SYK lay in the range of 0.3 to 3 µM; against GCN2 it was 3 to 50 µM.

Regarding `COc1ccc(Nc2nc3c(-c4cnn(C)c4)nccn3n2)cc1OC` [C6, (3,4-Dimethoxy-phenyl)-[8-(1-methyl-1H-pyrazol-4-yl)-[1,2,4]triazolo[1,5-a]pyrazin-2yl]-amine], the IC50 against SYK and against GCN2 was 0.3 to 3 µM in each case.

Take `CC(C)C(O)(c1n[nH]c2cc(Nc3nc4c(-c5cnn(C)c5)nccn4n3)ccc12)C(C)C` [C141, 2,4-dimethyl-3-{6-[8-(1-methyl-1H-pyrazol-4-yl)-[1,2,4]triazolo[1,5-a]pyrazin-2-ylamino]-1H-indazol-3-yl}-pentan-3-ol]: the results for the IC50 on SYK and on GCN2 were < 0.1 µM and 0.3 to 3 µM, respectively.

`CC1(C)C(=O)Nc2cc(Nc3nc4c(-c5cn[nH]c5)nccn4n3)ccc21` [C67, 3,3-dimethyl-6-[8-(1H-pyrazol-4-yl)-[1,2,4]triazolo[1,5-a]pyrazin-2-ylamino]-1,3-dihydro-indol-2-one]: the IC50 at SYK was < 0.1 µM; against GCN2, 0.3 to 3 µM.

For `COc1cc(Nc2nc3c(N4CCN(C)CC4c4ccccc4)nccn3n2)cc(OC)c1` (centres unmarked) [C55, (3,5-dimethoxy-phenyl)-[8-(4-methyl-2-phenyl-piperazin-1-yl)-[1,2,4]triazolo[1,5-a]pyrazin-2-yl]-amine], the results for the IC50 at SYK and at GCN2 were 0.3 to 3 µM and 3 to 50 µM, respectively.

With `CC1(C)C(=O)Nc2cc(Nc3nc4c(N5CCC[C@H]5CO)nccn4n3)ccc21` [C84, 6-[8-((S)-2-hydroxymethyl-pyrrolidin-1-yl)-[1,2,4]triazolo[1,5-a]pyrazin-2-ylamino]-3,3-dimethyl-1,3-dihydro-indol-2-one], the values for the IC50 on SYK and on GCN2 were 0.1 to 0.3 µM and 3 to 50 µM, respectively.

For the compound `Cn1cc(-c2nccn3nc(Nc4ccc5cc[nH]c5c4)nc23)cn1` [C111], the IC50 on SYK fell in the range of 0.1 to 0.3 µM; against GCN2, 0.3 to 3 µM.

`CC1(C)C(=O)Nc2cc(Nc3nc4c(N5CC[C@@H](O)C5)nccn4n3)ccc21` [C73, 6-[8-((R)-3-hydroxy-pyrrolidin-1-yl)-[1,2,4]triazolo[1,5-a]pyrazin-2-ylamino]-3,3-dimethyl-1,3-dihydro-indol-2-one]: the IC50 lay in the range of 0.1 to 0.3 µM against SYK and 3 to 50 µM on GCN2.

Take `CC1(C)C(=O)Nc2cc(Nc3nc4c(N5CCC6(COC6)C5)nccn4n3)ccc21` [C81, 3,3-dimethyl-6-[8-(2-oxa-6-aza-spiro[3.4]oct-6-yl)-[1,2,4]triazolo[1,5-a]pyrazin-2-ylamino]-1,3-dihydro-indol-2-one]: the results for the IC50 against SYK and on GCN2 were < 0.1 µM and 3 to 50 µM, respectively.

Consider `CC1(C)C(=O)Nc2cc(Nc3nc4c(N5CCC[C@@H](N)C5)nccn4n3)ccc21` [C94, 6-[8-((R)-3-amino-piperidin-1-yl)-[1,2,4]triazolo[1,5-a]pyrazin-2-ylamino]-3,3-dimethyl-1,3-dihydro-indol-2-one], for which the concentration for half-maximal inhibition (IC50) is < 0.1 µM on SYK and 3 to 50 µM against GCN2.

As to `COc1cc(Nc2nc3c(N4CCN(C(C)=O)CC4)nccn3n2)cc(OC)c1` [C51, 1-{4-[2-(3,5-dimethoxy-phenylamino)-[1,2,4]triazolo[1,5-a]pyrazin-8-yl]-piperazin-1-yl}-ethanone], the IC50 on SYK and against GCN2 was 3 to 50 µM throughout.

For the compound `CC1(C)C(=O)Nc2cc(Nc3nc4c(N5CCC[C@H](N)C5)nccn4n3)ccc21` [C99, 6-[8-((S)-3-amino-piperidin-1-yl)-[1,2,4]triazolo[1,5-a]pyrazin-2-ylamino]-3,3-dimethyl-1,3-dihydro-indol-2-one], the concentration for half-maximal inhibition (IC50) against SYK was < 0.1 µM; against GCN2 it was 3 to 50 µM.

For the compound `Cn1cc(-c2nccn3nc(Nc4ccc5nnn(C)c5c4)nc23)cn1` [C30, (3-Methyl-3H-benzotriazol-5-yl)-[8-(1-methyl-1H-pyrazol-4-yl)-[1,2,4]triazolo[1,5-a]pyrazin-2-yl]-amine], the IC50 against SYK and against GCN2 was 0.3 to 3 µM in each case.
